Laboratory results published in patent US6583149B1, “Method for the treatment or prevention of viral infection using nucleoside analogues” (BioChem Pharma Inc., priority 1999, dated 2003).
Read-outs that look alike come from different tables or passages of the source.

Tests used:
HSV-1 = assay: Herpes simplex virus plaque reduction assay in Vero34 cells; format: cell-based; conditions: Human alphaherpesvirus 1, 72 h, 3 days
Procedure: In 12 wells tissue culture dishes, 2×10^5 Vero34 cells were seeded in 2 mls of DMEM supplemented with 10% […]. The plate was incubated in 5% CO2/air at 37° C. overnight. The medium was removed and cells were inoculated with 200 PFU of HSV-1 diluted in a final volume of 0.5 ml DMEM supplemented with 2% FES. After adsorption at 37° C. for 1 hour, the viruses were removed and the cell monolayers were overlaid with 1 ml of DMEM-2% FES containing the test compound at final concentrations of 0.1, 1.0, 10, and 50 ug/ml. Acyclovir was used as a positive control. Uninfected and infected untreated monolayers were also included in the assay as controls. All compounds were tested in duplicates. After an incubation at 37° C. in 5% CO2/air for 3 days, cells were fixed with the addition of one volume of formaldehyde 8%/water for 30 min. The formaldehyde/medium was removed and the monolayers were stained with crystal violet 2%/ethanol 20% for few sec. The cells were rinsed with tap water and the monolayers were examined for the presence of plaques under a microscope.

Vero34 cells = format: cell-based; conditions: African green monkey, 48 h
Procedure: The CD50 value (cytotoxic dose at 50%) was assessed on virus-free control layers of cells to assess the toxicity of the compounds.
Flat bottom 96 well plates were plated with 5×1OE3 Vero-34 cells/well and 1×10E4 Hs-68 or Wi-38 cells/well respectively and incubated overnight at 37° C. and 5% CO2/air. After incubation, the supernatant medium was removed and replaced with test compound dilutions in 2% DMEM (150 ul). The cells were then incubated 48 hours in a 5% CO2 incubator at 37° C.
50 μl/well of 10 uCi/ml solution of [3H]-methyl thymidine (specific activity of approx. 2 Ci/mmol) was added to the culture medium and incubated overnight (18 hours) in a 5% CO2 incubator at 37° C.
Cells were then collected onto a fiberglass filter (Printed Filtermat A 1450-421 Wallac) with a Tomtec cell harvester. Suspended cells were collected directly onto filter while for adherent cells, the medium was first removed, then the cells washed with PBS and trypsinized for 2-3 minutes (50 μl trypsin/well) before collecting.
Filters were dried for 1 hour at 37-40° C. and then placed into bags (1450-microbeta #1450-432 Wallac) with 4.5 ml of Betascint and counts obtained with Microbeta 1450 Wallac (protocol 1).
(§1) The percent of cell proliferation was determined by comparison to the control (no test compound) and thereby establishing 50% inhibitory concentration is established.

HCMV = assay: CMV plaque reduction assay in Hs68 cells; format: cell-based, human cytomegalovirus; conditions: 8 days, read-out: HCMV-1 IC50
Procedure: In 12-well tissue culture dishes, 1.5×10E5 or Hs68 cells (human […] fibroblast cell line) were plated per well with 2 ml of DMEM 10% fetal bovine serum and incubated in 5% CO2/air at 37° C. overnight or until cells were ready. The medium was then removed and the cells inoculated with 0.5 ml (containing 200 pfu/ml diluted in DMEM 2% FBS) of HCMV virus in each well. After adsorption at 37° C. for 2 hours, the virus was removed and cell monolayers were overlaid (1 ml) with DMEM 2% FBS containing test compounds at various concentrations. The cells were then incubated at 37° C. for 8 days, and then fixed with one volume (1 ml) of formaldehyde 8%/water or PBS 1× for 30 minutes. The formaldehyde solution was removed and the cell monolayers were stained with crystal violet 2%/EtOH 20% for a few seconds and then rinsed with water. Monolayers were examined for the presence of plaques under a microscope, the percentage of plaque reduction determined for each compound by comparison with the untreated cells (no test compound) and the 50% inhibitory concentration (IC50) established. DHPG was used as a positive control. Note: DMEM medium contained 1% glutamine and 1% pen/strep

Hs68 cells = assay: Toxicity (CD50) reported with the CMV assay; format: cell-based, human; conditions: reported with HCMV assay
Procedure: Cells were then collected onto a fiberglass filter (Printed Filtermat A 1450-421 Wallac) with a Tomtec cell harvester.
as §1

RSV and CMV viruses = assay: Case report: immune suppressed leukemia patient with RSV and CMV pneumonias in troxacitabine phase I study; format: in vivo, human; conditions: one elderly patient with relapsed resistant acute myeloid leukemia, also treated for RSV and CMV infections
Procedure: An elderly patient with relapsed resistant acute myeloid leukemia was entered in a troxacitabine (compound #1) as phase I Leukemia study. In the early part of the therapy, the patient, known to be immune suppressed, developed severe pneumonias. […] The patient to was maintained in the troxacitabine study and was treated for RSV and CMV viral infections.

| IC50 (HSV-1) | IC50 (HCMV) | SMILES | toxicity CD50 (Vero34 cells) | toxicity CD50 (Hs68 cells) | IC50 (HCMV; Human betaherpesvirus 5, 192 h) | Clinical outcome of viral pneumonias (RSV and CMV) (RSV and CMV viruses) |
| --- | --- | --- | --- | --- | --- | --- |
| 13.3 µM | – | Nc1nc2c(ncn2COCCO)c(=O)[nH]1 [ACYCLOVIR, reference compound] | >13.3 µM | – | – | – |
| 47 to 234 µM | – | Nc1ncn([C@@H]2CO[C@H](CO)O2)c(=O)n1 [COMPOUND #3, (−)cis-2-Hydroxymethyl-4-(5′-azacytosin-1′-yl)-1,3-Dioxolane] | – | – | – | – |
| – | 9.8 µM | Nc1nc2c(ncn2COC(CO)CO)c(=O)[nH]1 [DHPG, reference compound] | – | – | – | – |

| SMILES | IC50 (HSV-1) | IC50 (HCMV) | toxicity CD50 (Vero34 cells) | toxicity CD50 (Hs68 cells) | IC50 (HCMV; Human betaherpesvirus 5, 192 h) | Clinical outcome of viral pneumonias (RSV and CMV) (RSV and CMV viruses) |
| --- | --- | --- | --- | --- | --- | --- |
| Nc1ccn([C@@H]2CO[C@H](CO)O2)c(=O)n1 [COMPOUND #1, (−)-cis-2-Hydroxymethyl-4-(cytosin-1′-yl)-1,3-dioxolane] | 1.7 µM | – | >50 µM | >50 µM | 0.7 µM | did recover from their pneumonias |
